According to PubChem BioAssay AID212 (DTP/NCI, 2004):
Where “and” joins values, the source holds several entries; their conditions need not be identical. Identical values can stand only once. Results filed as inconclusive are left out.

Test system: BDF1 mice, colon carcinoma 38 sc, T/C %
Test: NCI In Vivo Anticancer Drug Screen. Data for tumor model Colon Carcinoma 38 (subcutaneous) in B6D2F1 (BDF1) mice
Conditions: endpoint: median tumor weight (est.), higher = larger tumour
Outline: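 T/C readout: treated group (T) measurement over vehicle control group (C) measurement. Endpoint is survival or tumor size in mice bearing a transplanted tumor.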

[1] = dose: 50.0 mg/kg/injection, schedule: Q07DX003 (ip), vehicle: saline
[2] = dose: 200.0 mg/kg/injection, schedule: Q07DX003 (ip), vehicle: saline
[3] = dose: 12.5 mg/kg/injection, schedule: Q07DX002 (ip), vehicle: saline with Tween-80
[4] = dose: 200.0 mg/kg/injection, schedule: Q07DX002 (ip), vehicle: saline with Tween-80
[5] = dose: 400.0 mg/kg/injection, schedule: Q07DX002 (ip), vehicle: saline with Tween-80
[6] = dose: 6.2 micrograms/kg/injection, schedule: Q07DX003 (ip), vehicle: saline + alcohol
[7] = dose: 25.0 micrograms/kg/injection, schedule: Q07DX003 (ip), vehicle: saline + alcohol
[8] = dose: 50.0 mg/kg/injection, schedule: Q07DX002 (ip), vehicle: Klucel (hydroxypropylcellulose) (HPC)
[9] = dose: 100.0 mg/kg/injection, schedule: Q07DX002 (ip), vehicle: Klucel (hydroxypropylcellulose) (HPC)
[10] = dose: 200.0 mg/kg/injection, schedule: Q07DX002 (ip), vehicle: Klucel (hydroxypropylcellulose) (HPC)

SMILES: N=C(N)Sc1cc(O)ccc1O
- T/C (dose: 12.5 mg/kg/injection, schedule: Q07DX003 (ip), vehicle: saline): 88 % of control
- T/C (dose: 25.0 mg/kg/injection, schedule: Q07DX003 (ip), vehicle: saline): 66 % of control
- T/C [1]: 77 % of control
- T/C (dose: 100.0 mg/kg/injection, schedule: Q07DX003 (ip), vehicle: saline): 103 % of control
- T/C [2]: 55 % of control

SMILES: BrC1CC(Br)c2c1c1c(c3c2C(Br)CC3Br)C(Br)CC1Br (stereo not given)
- T/C [3]: 157 % of control
- T/C (dose: 25.0 mg/kg/injection, schedule: Q07DX002 (ip), vehicle: saline with Tween-80): 94 % of control and 103 % of control
- T/C [4]: 80 % of control and 86 % of control
- T/C [5]: 81 % of control and 105 % of control

SMILES: COc1cc2cc(c1Cl)N(C)C(=O)CC(OC(=O)C(C)C)C1(C)OC1C(C)C1CC(O)(NC(=O)O1)C(OC)/C=C/C=C(C)C2 (stereo not given)
- T/C [6]: 109 % of control
- T/C (dose: 12.5 micrograms/kg/injection, schedule: Q07DX003 (ip), vehicle: saline + alcohol): 90 % of control
- T/C [7]: 88 % of control
- T/C (dose: 50.0 micrograms/kg/injection, schedule: Q07DX003 (ip), vehicle: saline + alcohol): 79 % of control
- T/C (dose: 100.0 micrograms/kg/injection, schedule: Q07DX003 (ip), vehicle: saline + alcohol): 93 % of control

SMILES: CC(C)CCCCCCCCCCCCC(=O)NCC(=O)NC1C(C)OC(Nc2ncnc3nc[nH]c23)C(O)C1O (stereo not given)
- T/C (dose: 0.5 mg/kg/injection, schedule: Q07DX002 (ip), vehicle: distilled water + Tween-80): 105 % of control

SMILES: CC[C@@]1(O)C[C@H](OC2CC(N(C)C)C(OC3CC(O)C(OC4CCC(=O)C(C)O4)C(C)O3)C(C)O2)c2c(cc3c(c2O)C(=O)c2c(O)ccc(O)c2C3=O)[C@H]1C(=O)OC (stereo not given in full)
- T/C (dose: 0.5 mg/kg/injection, schedule: Q07DX002 (ip), vehicle: water): 78 % of control
- T/C (dose: 0.5 mg/kg/injection, schedule: Q07DX003 (ip), vehicle: water): 100 % of control
- T/C (dose: 1.0 mg/kg/injection, schedule: Q07DX002 (ip), vehicle: water): 47 % of control
- T/C (dose: 1.0 mg/kg/injection, schedule: Q07DX003 (ip), vehicle: water): 111 % of control
- T/C (dose: 2.0 mg/kg/injection, schedule: Q07DX002 (ip), vehicle: water): 84 % of control
- T/C (dose: 2.0 mg/kg/injection, schedule: Q07DX003 (ip), vehicle: water): 79 % of control
- T/C (dose: 4.0 mg/kg/injection, schedule: Q07DX002 (ip), vehicle: water): 44 % of control
- T/C (dose: 4.0 mg/kg/injection, schedule: Q07DX003 (ip), vehicle: water): 46 % of control
- T/C (dose: 8.0 mg/kg/injection, schedule: Q07DX002 (ip), vehicle: water): 47 % of control

SMILES: O=C(O)CC(NC(=O)CP(=O)(O)O)C(=O)O (stereo not given)
- T/C [1]: 95 % of control
- T/C (dose: 51.8 mg/kg/injection, schedule: Q01DX004 (ip), vehicle: saline): 102 % of control
- T/C (dose: 86.4 mg/kg/injection, schedule: Q01DX004 (ip), vehicle: saline): 75 % of control
- T/C (dose: 119.0 mg/kg/injection, schedule: Q01DX009 (ip), vehicle: saline): 34 % of control
- T/C (dose: 144.0 mg/kg/injection, schedule: Q01DX004 (ip), vehicle: saline): 12 % of control
- T/C (dose: 178.0 mg/kg/injection, schedule: Q01DX009 (ip), vehicle: saline): 12 % of control
- T/C (dose: 180.0 mg/kg/injection, schedule: Q04DX004 (ip), vehicle: saline): 79 % of control
- T/C [2]: 115 % of control
- T/C (dose: 240.0 mg/kg/injection, schedule: Q01DX004 (ip), vehicle: saline): 9 % of control
- T/C (dose: 300.0 mg/kg/injection, schedule: Q04DX004 (ip), vehicle: saline): 75 % of control
- T/C (dose: 370.0 mg/kg/injection, schedule: Q07DX003 (ip), vehicle: saline): 70 % of control
- T/C (dose: 400.0 mg/kg/injection, schedule: Q07DX003 (ip), vehicle: saline): 75 % of control
- T/C (dose: 500.0 mg/kg/injection, schedule: Q04DX004 (ip), vehicle: saline): 58 % of control
- T/C (dose: 552.0 mg/kg/injection, schedule: Q07DX003 (ip), vehicle: saline): 40 % of control
- T/C (dose: 800.0 mg/kg/injection, schedule: Q07DX003 (ip), vehicle: saline): 21 % of control

SMILES: CC1(O)CC23CC(O)C4(O)C(CC(O)C4(C)C)C(C)(O)C2CCC1C3O (stereo not given)
- T/C (dose: 0.25 mg/kg/injection, schedule: Q07DX002 (ip), vehicle: Klucel (hydroxypropylcellulose) (HPC)): 102 % of control
- T/C (dose: 0.5 mg/kg/injection, schedule: Q07DX002 (ip), vehicle: Klucel (hydroxypropylcellulose) (HPC)): 53 % of control

SMILES: Oc1c(Cl)cc(Cl)cc1C=NCCSc1ccc(Cl)cc1
- T/C [8]: 85 % of control
- T/C [9]: 78 % of control
- T/C [10]: 162 % of control

SMILES: COc1cc2cc(c1Cl)N(C)C(=O)CC(OC(=O)CC(C)C)C1(C)OC1C(C)C1CC(O)(NC(=O)O1)C(OC)/C=C/C=C(C)C2 (stereo not given)
- T/C [6]: 121 % of control
- T/C [7]: 75 % of control

SMILES: CCOC(=O)C(CC(C)C)NC(=O)C(Cc1ccc(N(CCCl)CCCl)cc1)NC(C)=O (stereo not given)
- T/C (dose: 32.0 mg/kg/injection, schedule: Q07DX002 (ip), vehicle: saline with Tween-80): 53 % of control
- T/C (dose: 32.0 mg/kg/injection, schedule: Q07DX003 (ip), vehicle: saline with Tween-80): 76 % of control
- T/C (dose: 64.0 mg/kg/injection, schedule: Q07DX002 (ip), vehicle: saline with Tween-80): 36 % of control
- T/C (dose: 64.0 mg/kg/injection, schedule: Q07DX003 (ip), vehicle: saline with Tween-80): 66 % of control
- T/C (dose: 128.0 mg/kg/injection, schedule: Q07DX003 (ip), vehicle: saline with Tween-80): 82 % of control

SMILES: c1ccc([C@H]2CN3CCSC3=N2)cc1
- T/C (dose: 10.0 mg/kg/injection, schedule: Q07DX003 (ip), vehicle: saline): 77 % of control
- T/C (dose: 40.0 mg/kg/injection, schedule: Q07DX003 (ip), vehicle: saline): 45 % of control

SMILES: CCCCNc1ccc2nnc(C)n2n1
- T/C (dose: 25.0 mg/kg/injection, schedule: Q07DX002 (ip), vehicle: other): 102 % of control
- T/C (dose: 200.0 mg/kg/injection, schedule: Q07DX002 (ip), vehicle: other): 98 % of control and 108 % of control

SMILES: CC(=O)C1=C(O)C2(O)C(=O)c3c(c(C)c4ccc(C)c(O)c4c3O)CC2C(N)C1=O (stereo not given)
- T/C (dose: 7.5 mg/kg/injection, schedule: Q07DX002 (ip), vehicle: saline + alcohol): 79 % of control and 95 % of control
- T/C (dose: 15.0 mg/kg/injection, schedule: Q07DX002 (ip), vehicle: saline + alcohol): 87 % of control and 106 % of control
- T/C (dose: 60.0 mg/kg/injection, schedule: Q07DX002 (ip), vehicle: saline + alcohol): 95 % of control and 107 % of control
- T/C (dose: 120.0 mg/kg/injection, schedule: Q07DX002 (ip), vehicle: saline + alcohol): 87 % of control

SMILES: CCC1CC2CN(CCc3c([nH]c4ccccc34)C(C(=O)OC)(c3cc4c(cc3OC)N(C)C3C(O)(C(=O)OC)C(OC(C)=O)C5(CC)C=CCN6CCC43C65)C2)C1 (stereo not given)
- T/C (dose: 0.25 mg/kg/injection, schedule: Q07DX002 (ip), vehicle: suspension in saline): 162 % of control
- T/C (dose: 0.5 mg/kg/injection, schedule: Q07DX002 (ip), vehicle: suspension in saline): 158 % of control
- T/C (dose: 1.0 mg/kg/injection, schedule: Q07DX002 (ip), vehicle: suspension in saline): 167 % of control

SMILES: CNC(=O)OCc1c(COC(=O)NC)c(C)n(-c2ccc(OC)cc2)c1C
- T/C (dose: 6.25 mg/kg/injection, schedule: Q07DX002 (ip), vehicle: Klucel (hydroxypropylcellulose) (HPC)): 82 % of control
- T/C (dose: 12.5 mg/kg/injection, schedule: Q07DX002 (ip), vehicle: Klucel (hydroxypropylcellulose) (HPC)): 69 % of control
- T/C [8]: 111 % of control
- T/C [9]: 68 % of control and 93 % of control
- T/C [10]: 49 % of control

SMILES: Cc1oc2c(C)c3oc(=O)cc(C)c3cc2c1CCl
- T/C [3]: 77 % of control and 89 % of control
- T/C (dose: 50.0 mg/kg/injection, schedule: Q07DX002 (ip), vehicle: saline with Tween-80): 74 % of control and 77 % of control
- T/C [4]: 53 % of control
- T/C [5]: 94 % of control

SMILES: CSc1ncnc2c1ncn2C1OC(CO)C(O)C1O (stereo not given)
- T/C (dose: 6.25 mg/kg/injection, schedule: Q07DX002 (ip), vehicle: saline + alcohol): 91 % of control
- T/C (dose: 12.5 mg/kg/injection, schedule: Q07DX002 (ip), vehicle: saline + alcohol): 83 % of control
- T/C (dose: 25.0 mg/kg/injection, schedule: Q07DX002 (ip), vehicle: saline + alcohol): 150 % of control
- T/C (dose: 100.0 mg/kg/injection, schedule: Q07DX002 (ip), vehicle: saline + alcohol): 25 % of control
